Measurements from patent US11345711B2, “8,9-dihydroimidazo[1,2-a]pyrimido[5,4-e]pyrimidin-5(6H)-ones” (IMPACT THERAPEUTICS (SHANGHAI), INC, priority 2016, dated 2022).
Like-named read-outs stand apart in the source and are kept apart here.

Tests used:
Wee1 (h) = Wee1 (h) (Homo sapiens, UniProt P30291); experiment: Wee1 kinase (h) detection method, [γ-33P]-ATP filter assay; format: biochemical
LoVo cells = experiment: MTT based cell viability assay on LoVo cells; conditions: Homo sapiens, LoVo, 72 h, 3 d, read-out: IC50, growth inhibition of LoVo cells
Method in brief: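 Inhibition of LoVo proliferation was derived as IC50 from a sigmoidal dose-response fit of cell survival. Readout was MTT (0.5 mg/mL, 4 h) with absorbance at 552/630/690 nm, after 3-day treatment at 37 °C. Eight-point series from 10 μM to 0.01 μM, DMSO control, 1% DMSO final.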

NCI-H1299 cells = experiment: MTT based cell viability assay on NCI-H1299 cells; conditions: Homo sapiens, read-out: IC50, growth inhibition of NCI-H1299 cells
Method in brief: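 NCI-H1299 cells (1000/well, settled overnight) were exposed for 3 d at 37 °C, 5% CO2, to an eight-point series of 10 μM to 0.01 μM plus DMSO blank, as prepared in DMSO (final DMSO 1‰). MTT (0.5 mg/mL, 4 h) was read at 552/630/690 nm. IC50 came from sigmoidal dose-response fits of survival.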

Wee1 (h), sequence (P30291 whole entry): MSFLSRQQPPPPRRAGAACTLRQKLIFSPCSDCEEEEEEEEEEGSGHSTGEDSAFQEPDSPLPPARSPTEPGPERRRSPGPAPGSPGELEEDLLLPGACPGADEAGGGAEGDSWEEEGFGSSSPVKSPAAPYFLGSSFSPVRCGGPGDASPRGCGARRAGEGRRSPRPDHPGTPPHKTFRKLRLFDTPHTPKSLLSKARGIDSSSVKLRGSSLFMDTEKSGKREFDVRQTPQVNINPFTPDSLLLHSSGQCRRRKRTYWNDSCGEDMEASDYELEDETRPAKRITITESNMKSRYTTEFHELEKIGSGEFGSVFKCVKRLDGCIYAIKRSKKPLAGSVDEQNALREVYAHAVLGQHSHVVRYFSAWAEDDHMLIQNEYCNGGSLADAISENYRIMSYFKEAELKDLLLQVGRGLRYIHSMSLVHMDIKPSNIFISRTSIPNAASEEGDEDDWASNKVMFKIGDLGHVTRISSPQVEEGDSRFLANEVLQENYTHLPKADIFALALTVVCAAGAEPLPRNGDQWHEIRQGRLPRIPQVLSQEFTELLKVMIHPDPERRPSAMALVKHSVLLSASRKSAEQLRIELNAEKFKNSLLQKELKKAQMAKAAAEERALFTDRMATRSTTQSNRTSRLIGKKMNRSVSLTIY

Inh. (%) of Wee1 kinase enzyme activity (Wee1 (h); C 1 μm compound)	IC50 (LoVo cells)	IC50 (NCI-H1299 cells; NCI-H1299 cells)	Inh. (%) of Wee1 kinase enzyme activity (Wee1 (h); C 0.01 μm compound)	Inh. (%) of Wee1 kinase enzyme activity (Wee1 (h); C 0.1 μm compound)	IC50 (NCI-H1299 cells; NCI-H1299, NCI-H1299 cells)	Structure (SMILES)
2%	> 100000 nM	> 10000 nM				CN1CCN(c2ccc(Nc3ncc4c(n3)N3CCN=C3N(c3cccnc3)C4=O)cc2)CC1 [Example 98, 6-(Pyridin-3-yl)-2-((4-(4-methylpiperazin-1-yl)phenyl)amino)-8,9-dihydroimidazo[1,2-a]pyrimido[5,4-e]pyrimidin-5(6H)-one]
8%	> 100000 nM	> 10000 nM				CN1CCN(c2ccc(Nc3ncc4c(n3)N3CCN=C3N(c3ccncc3)C4=O)cc2)CC1 [Example 99, 6-(Pyridin-4-yl)-2-((4-(4-methylpiperazin-1-yl)phenyl)amino)-8,9-dihydroimidazo[1,2-a]pyrimido[5,4-e]pyrimidin-5(6H)-one]
87%	172 nM	532 nM				CN1CCN(c2ccc(Nc3ncc4c(n3)N3CCN=C3N(c3c(F)cccc3F)C4=O)cc2Cl)CC1 [Example 100, 6-(2,6-Difluorophenyl)-2-((3-chloro-4-(4-methylpiperazin-1-yl)phenyl)amino)-8,9-dihydroimidazo[1,2-a]pyrimido[5,4-e]pyrimidin-5(6H)-one]
95%	95.4 nM		22%	70%	214 nM	Cc1cc(Nc2ncc3c(n2)N2CCN=C2N(c2c(F)cccc2F)C3=O)cc(C)c1N1CCN(C)CC1 [Example 101, 6-(2,6-Difluorophenyl)-2-((3,5-dimethyl-4-(4-methylpiperazin-1-yl)phenyl)amino)-8,9-dihydroimidazo[1,2-a]pyrimido[5,4-e]pyrimidin-5(6H)-one]
7%	> 100000 nM	> 10000 nM				O=C1c2cnc(Nc3ccc(-n4ccnc4)cc3)nc2N2CCN=C2N1c1c(F)cccc1Cl [Example 102, 6-(2-Chloro-6-fluorophenyl)-2-((4-(1H-imidazol-1-yl)phenyl)amino)-8,9-dihydroimidazo[1,2-a]pyrimido[5,4-e]pyrimidin-5(6H)-one]
92%	678 nM	1050 nM	30%	70%		CN1CCCN(c2ccc(Nc3ncc4c(n3)N3CCN=C3N(c3c(F)cccc3Cl)C4=O)cc2)CC1 [Example 103, 6-(2-Chloro-6-fluorophenyl)-2-((4-(4-methyl-1,4-diazepan-1-yl)phenyl)amino)-8,9-dihydroimidazo[1,2-a]pyrimido[5,4-e]pyrimidin-5(6H)-one]
93%	460 nM	1050 nM				CN1CCN(Cc2ccc(Nc3ncc4c(n3)N3CCN=C3N(c3c(F)cccc3Cl)C4=O)cc2)CC1 [Example 104, 6-(2-Chloro-6-fluorophenyl)-2-((4-((4-methylpiperazin-1-yl)methyl)phenyl)amino)-8,9-dihydroimidazo[1,2-a]pyrimido[5,4-e]pyrimidin-5(6H)-one]
97%	373 nM	911 nM	40%	85%		CN(C)CCOc1ccc(Nc2ncc3c(n2)N2CCN=C2N(c2c(F)cccc2Cl)C3=O)cc1 [Example 105, 6-(2-Chloro-6-fluorophenyl)-2-((4-(2-(dimethylamino)ethoxy)phenyl)amino)-8,9-dihydroimidazo[1,2-a]pyrimido[5,4-e]pyrimidin-5(6H)-one]
94%	330 nM	835 nM	38%	83%		CN(C)CCCOc1ccc(Nc2ncc3c(n2)N2CCN=C2N(c2c(F)cccc2Cl)C3=O)cc1 [Example 106, 6-(2-Chloro-6-fluorophenyl)-2-((4-(3-(dimethylamino)propoxy)phenyl)amino)-8,9-dihydroimidazo[1,2-a]pyrimido[5,4-e]pyrimidin-5(6H)-one]
